Test results published in ChEMBL document CHEMBL1201862, “PubChem BioAssay data set” (2004).
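Cells were grown in 96-well plates and exposed to each compound for 48 hours at five concentrations; endpoints were interpolated linearly between bracketing concentrations, or set to the highest concentration if not reached. GI50: concentration for 50% inhibition of growth.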 Calls of active or inactive are those of the source. Cut-off read from the data, not from the text of the source: active = GI50 up to about 1.1 µM and inactive = higher.

Columns and labels:
Assay in all cases: NCI-60 cell line screen, 48 h
786-0 = test system: 786-0
A498 = test system: A498
A549 = test system: A549
ACHN = test system: ACHN
BT-549 = test system: BT-549
CAKI-1 = test system: CAKI-1
CCRF-CEM = test system: CCRF-CEM
EKVX = test system: EKVX
HCC 2998 = test system: HCC 2998
HCT-116 = test system: HCT-116
HCT-15 = test system: HCT-15
HL-60 = test system: HL-60
HOP-62 = test system: HOP-62
HOP-92 = test system: HOP-92
HT-29 = test system: HT-29
Hs-578T = test system: Hs-578T
IGROV-1 = test system: IGROV-1
K562 = test system: K562
KM12 = test system: KM12
LOX IMVI = test system: LOX IMVI
M14 = test system: M14
MCF7 = test system: MCF7
MDA-MB-231 = test system: MDA-MB-231
MDA-MB-435 = test system: MDA-MB-435
MDA-N = test system: MDA-N
MOLT-4 = test system: MOLT-4
Malme-3M = test system: Malme-3M
NCI-H226 = test system: NCI-H226
NCI-H23 = test system: NCI-H23
NCI-H460 = test system: NCI-H460
NCI-H522 = test system: NCI-H522
NCI/ADR-RES = test system: NCI/ADR-RES
OVCAR-3 = test system: OVCAR-3
OVCAR-4 = test system: OVCAR-4
OVCAR-5 = test system: OVCAR-5
OVCAR-8 = test system: OVCAR-8
PC-3 = test system: PC-3
RPMI-8226 = test system: RPMI-8226
RXF 393 = test system: RXF 393
SF-268 = test system: SF-268
SF-295 = test system: SF-295
SF-539 = test system: SF-539
SK-MEL-28 = test system: SK-MEL-28
SK-MEL-2 = test system: SK-MEL-2
SK-MEL-5 = test system: SK-MEL-5
SK-OV-3 = test system: SK-OV-3
SN12C = test system: SN12C
SNB-19 = test system: SNB-19
SNB-75 = test system: SNB-75
SR = test system: SR
SW-620 = test system: SW-620
T47D = test system: T47D
TK-10 = test system: TK-10
U-251 = test system: U-251
UACC-257 = test system: UACC-257
UACC-62 = test system: UACC-62
UO-31 = test system: UO-31
COLO 205 = test system: COLO 205
DU-145 = test system: DU-145

N/N=C(\C(=O)Nc1ccc([N+](=O)[O-])cc1)C(C1=Nc2cc([N+](=O)[O-])ccc2NC1)[N+](=O)[O-] (stereo unspecified)
GI50 (786-0): > 100 µM (inactive) | GI50 (A498): > 100 µM (inactive) | GI50 (A549): 55.8 µM (inactive) | GI50 (ACHN): 43.1 µM (inactive) | GI50 (BT-549): > 100 µM (inactive) | GI50 (CAKI-1): 79.4 µM (inactive) | GI50 (CCRF-CEM): 65.2 µM (inactive) | GI50 (EKVX): > 100 µM (inactive) | GI50 (HCC 2998): > 100 µM (inactive) | GI50 (HCT-116): 79.1 µM (inactive) | GI50 (HCT-15): > 100 µM | GI50 (HL-60): > 100 µM (inactive) | GI50 (HOP-62): > 100 µM (inactive) | GI50 (HOP-92): > 100 µM (inactive) | GI50 (HT-29): 72.4 µM (inactive) | GI50 (Hs-578T): > 100 µM (inactive) | GI50 (IGROV-1): > 100 µM (inactive) | GI50 (K562): > 100 µM (inactive) | GI50 (KM12): 32 µM (inactive) | GI50 (LOX IMVI): 74.8 µM (inactive) | GI50 (M14): > 100 µM (inactive) | GI50 (MCF7): 44.3 µM (inactive) | GI50 (MDA-MB-231): > 100 µM (inactive) | GI50 (MDA-MB-435): 88.3 µM (inactive) | GI50 (MDA-N): > 100 µM (inactive) | GI50 (MOLT-4): > 100 µM (inactive) | GI50 (Malme-3M): > 100 µM (inactive) | GI50 (NCI-H226): > 100 µM (inactive) | GI50 (NCI-H23): > 100 µM (inactive) | GI50 (NCI-H460): 42.2 µM (inactive) | GI50 (NCI-H522): 25.3 µM (inactive) | GI50 (NCI/ADR-RES): > 100 µM (inactive) | GI50 (OVCAR-3): > 100 µM (inactive) | GI50 (OVCAR-4): > 100 µM (inactive) | GI50 (OVCAR-5): > 100 µM (inactive) | GI50 (OVCAR-8): > 100 µM (inactive) | GI50 (PC-3): > 100 µM (inactive) | GI50 (RPMI-8226): > 100 µM (inactive) | GI50 (RXF 393): > 100 µM (inactive) | GI50 (SF-268): > 100 µM (inactive) | GI50 (SF-295): > 100 µM (inactive) | GI50 (SF-539): > 100 µM (inactive) | GI50 (SK-MEL-28): > 100 µM (inactive) | GI50 (SK-MEL-2): > 100 µM (inactive) | GI50 (SK-MEL-5): 74.1 µM (inactive) | GI50 (SK-OV-3): > 100 µM (inactive) | GI50 (SN12C): > 100 µM (inactive) | GI50 (SNB-19): > 100 µM (inactive) | GI50 (SNB-75): > 100 µM (inactive) | GI50 (SR): > 100 µM (inactive) | GI50 (SW-620): 91.4 µM (inactive) | GI50 (T47D): 75.7 µM (inactive) | GI50 (TK-10): > 100 µM (inactive) | GI50 (U-251): > 100 µM (inactive) | GI50 (UACC-257): > 100 µM (inactive) | GI50 (UACC-62): > 100 µM (inactive) | GI50 (UO-31): 22.1 µM (inactive)

COc1cc(Nc2nc3ccccc3nc2C(=O)O)cc(OC)c1OC
GI50 (786-0): 75.3 µM (inactive) | GI50 (A498): 35 µM (inactive) | GI50 (A549): > 100 µM (inactive) | GI50 (ACHN): > 100 µM (inactive) | GI50 (BT-549): 89.9 µM (inactive) | GI50 (CAKI-1): 16.4 µM (inactive) | GI50 (CCRF-CEM): 83.2 µM (inactive) | GI50 (COLO 205): > 100 µM (inactive) | GI50 (DU-145): > 100 µM (inactive) | GI50 (EKVX): 30.1 µM (inactive) | GI50 (HCC 2998): 69.3 µM (inactive) | GI50 (HCT-116): > 100 µM (inactive) | GI50 (HCT-15): 32.4 µM | GI50 (HL-60): > 100 µM (inactive) | GI50 (HOP-62): 22.8 µM (inactive) | GI50 (HOP-92): 25.9 µM (inactive) | GI50 (Hs-578T): 20.8 µM (inactive) | GI50 (IGROV-1): 78.3 µM (inactive) | GI50 (K562): > 100 µM (inactive) | GI50 (KM12): > 100 µM (inactive) | GI50 (LOX IMVI): 53 µM (inactive) | GI50 (M14): 73.6 µM (inactive) | GI50 (MDA-MB-231): 16.4 µM (inactive) | GI50 (MDA-MB-435): > 100 µM (inactive) | GI50 (MDA-N): > 100 µM (inactive) | GI50 (MOLT-4): > 100 µM (inactive) | GI50 (Malme-3M): > 100 µM (inactive) | GI50 (NCI-H226): > 100 µM (inactive) | GI50 (NCI-H23): 75.7 µM (inactive) | GI50 (NCI-H460): 65.3 µM (inactive) | GI50 (NCI-H522): 46 µM (inactive) | GI50 (NCI/ADR-RES): 23 µM (inactive) | GI50 (OVCAR-3): 45.8 µM (inactive) | GI50 (OVCAR-5): > 100 µM (inactive) | GI50 (OVCAR-8): > 100 µM (inactive) | GI50 (PC-3): > 100 µM (inactive) | GI50 (RPMI-8226): 70 µM (inactive) | GI50 (RXF 393): > 100 µM (inactive) | GI50 (SF-268): 28.3 µM (inactive) | GI50 (SF-295): 23.9 µM (inactive) | GI50 (SF-539): > 100 µM (inactive) | GI50 (SK-MEL-28): 30.1 µM (inactive) | GI50 (SK-MEL-5): 49.2 µM (inactive) | GI50 (SK-OV-3): 59.2 µM (inactive) | GI50 (SN12C): 74.1 µM (inactive) | GI50 (SNB-19): 70.6 µM (inactive) | GI50 (SNB-75): 47.2 µM (inactive) | GI50 (SR): > 100 µM (inactive) | GI50 (SW-620): > 100 µM (inactive) | GI50 (T47D): 24.3 µM (inactive) | GI50 (TK-10): 16.3 µM (inactive) | GI50 (U-251): > 100 µM (inactive) | GI50 (UACC-257): 87.3 µM (inactive) | GI50 (UO-31): 21.6 µM (inactive)
